Assay results as given in patent US10179770B2, “Quinolines derivatives as novel anticancer agents” (GENOSCIENCE PHARMA, priority 2013, dated 2019).

Columns and labels:
Format in all cases: cell-based
SkBr3 = test: CellTiter-Glo cell viability assay (example 57); details: Homo sapiens, SK-BR-3; SkBr3 (Breast); Cell Titer-Glo; 72 h
Method: (§1) The human breast cancer cell line SkBr3 and the human metastatic prostate carcinoma cell line LnCAP were cultured in Dulbecco's modified Eagle's medium (DMEM) supplemented with 10% fetal bovine serum (FBS) and 0.1% sodium pyruvate. The human myelocytic cell line U937 and NB4 were maintained in RPMI medium 1640 1× (Gibco 21875-034) supplemented with 10 % Fetal Bovine Serum (FBS, Eurobio S39130-0808) Kasumi and SKM-1 were maintained in RPMI medium 1640 1× (Gibco 21875-034) supplemented with 20 % Fetal Bovine Serum (FBS, Eurobio S39130-0808), HL60 was maintained in Iscove's modified Dulbecco's medium 1× (IMDM, Gibco 21890) supplemented with 20% Fetal Bovine Serum (FBS, Eurobio S39130-0808), cell line was maintained in MEM alpha medium (Gibco 22561-021) supplemented with 10% FBS at 37° C. with 5% CO2. Cell outgrowth was measured using the CellTiter-Glo luminescent cell viability assay as described by the manufacturer (Promega, Ref G7571 Madison, Wis., USA) using a FLUOstar optima luminometer (BMG Labtech, Ortenberg, Germany).
(§2) Briefly, for adherent cells, 10^4 cells were plated onto 96-well plates (white with clear bottom (3610, Corning Costar) in 100 μL of media per well and were allowed to grow overnight before the assay. For cells growing in suspension, 10^4 cells were plated onto 96-well plates immediately before the assay. […] Vehicle (DMSO) was used as a control, and all compounds were tested in a constant percentage of DMSO (1%). After addition of 50 μL of CellTiter GLO, luminescence was measured using a Centro luminometer (Berthold). EC50 values were determined as the dose of compound required to reduce luminescent values to 50% of the signal obtained for untreated cell cultures. All experiments were done in duplicate and repeated two independent times.

Kasumi-1 = test: CellTiter-Glo cell viability assay (example 57); details: Homo sapiens; Kasumi-1 (Leukemia); Cell Titer-Glo; 72 h
Method: as §1, §2

U937 = test: CellTiter-Glo cell viability assay (example 57); details: Homo sapiens, U-937; U937 (Leukemia); Cell Titer-Glo; 72 h
Method: as §1, §2

HL60 = test: CellTiter-Glo cell viability assay (example 57); details: Homo sapiens, HL-60; HL60 (Leukemia); Cell Titer-Glo; 72 h
Method: as §1, §2

SKM-1 = test: CellTiter-Glo cell viability assay (example 57); details: Homo sapiens; SKM-1 (Leukemia); Cell Titer-Glo; 72 h
Method: as §1, §2

NB4 = test: CellTiter-Glo cell viability assay (example 57); details: Homo sapiens, NB-4; NB4 (Leukemia); Cell Titer-Glo; 72 h
Method: as §1, §2

LNCaP = test: CellTiter-Glo cell viability assay (example 57); details: Homo sapiens; LNCaP (Prostate); Cell Titer-Glo; 72 h
Method: as §1, §2

RPMI-8226 = test: NCI-60 screen (SRB); details: RPMI-8226 (Leukemia)
Method in brief: (§3)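 A 48 h, five-concentration exposure in 5% FBS medium with SRB protein staining. Out-of-range values are reported as greater or less than the tested limits.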

HL-60 = test: NCI-60 screen (SRB); details: HL-60 (Leukemia)
Method in brief: as §3

[1] = Homo sapiens, read-out: LC50 (the source's name)

Structure (SMILES): CCN(CC)C1CCN(C(C)c2cc(-c3ccccc3)nc3ccccc23)CC1.Cl.Cl (stereo not drawn) [XIX-3, 2-phenyl-4-{1-[4-(N,N-diethylamino)piperidin-1-yl]-eth-1-yl}quinoline dihydrochloride]
- EC50 (SkBr3): 20 µM
- EC50 (Kasumi-1): 30 µM
- EC50 (U937): 35 µM
- EC50 (HL60): 40 µM
- EC50 (SKM-1): 30 µM
- EC50 (NB4): 37 µM
- EC50 (LNCaP): 25 µM
- GI50 (RPMI-8226; Homo sapiens): 2 µM
- CC50 (RPMI-8226; [1]): 26 µM
- TGI (RPMI-8226): 5 µM
- Growth percent at 10 μM (RPMI-8226; 10 μM): ++++ (cell growth % < 20)
- TGI (HL-60): 33 µM
- Growth percent at 10 μM (HL-60; 10 μM): ++ (cell growth 40 > % < 60)
- GI50 (HL-60; Homo sapiens): 17 µM
- CC50 (HL-60; [1]): 66 µM
